According to US20050256093A1, “Branched polyamine steroid derivatives” (Leo Pharma, priority 2002, published 2005):
In brackets after ≈: the same amount, converted by molar mass.

Experiments:
Assay type in all cases: cell-based
S. aureus CJ234R = experiment: agar cup assay MIC; details: Staphylococcus aureus; S. aureus CJ234R (MRSA, Rifampicin resistant)
From the text: (§1) In vitro investigations have shown a significant potency of the compounds of the invention against a large number of bacteria including gram-positive and gram-negative strains (Staphyiococci, Streptococci, Corynebacteriae, Mycobacteriae, Proteus, Propionibacterium, Pseudomonas, Neisseriae, E. coli) and fungal strains (Candida and Aspergillus). […] In addition, the studies of post-antibiotic effects point towards a strong bactericidal effect of the compounds of the invention. […] Minimum Inhibitory Concentrations were estimated using an agar cup assay. Bacterial strains were obtained from the American Type Culture Collection or from our own collection of clinical isolates. Colonies from fresh overnight culture were resuspended in saline water to 0.5 MacFarland corresponding to 10^8 CFU/ml. 200 ml Mueller Hinton agar (Oxoid) at 48° C. was inoculated at a concentration of 10^6 CFU/ml and poured into square petri dishes (245×245 mm). Holes were made in the inoculated plates and 200 μl of the compounds to be tested were disposed into each hole. A dilution series of compounds contained six dilution between 0.25 and 125 μg/ml. For Streptococci Mueller Hinton agar was supplemented with 5% sheep blood. Plates were appropriately incubated and zone diameters of growth inhibition were measured using an electronic caliper. MICs were estimated using a linear regression curve between the zone diameter of growth inhibition and the log2 of the sample concentration. The microbiological assay set up is in agreement with the European Pharmacopoeia 3rd edition (1997). The inhibition zones are function of the concentration of the compounds used. Known antibiotics including fusidic acid (FA), mupirocin and linezolid were used as reference compounds.

[1] = tested on: Corynebacterium xerosis FF; experiment: agar cup assay MIC
From the text: as §1

[2] = tested on: Pseudomonas aeruginosa BA17; experiment: agar cup assay MIC
From the text: as §1

S. epidermis CK5 = experiment: agar cup assay MIC; details: Staphylococcus epidermidis
From the text: as §1

[3] = tested on: Propionibacterium acnes FN33; experiment: agar cup assay MIC; details: Cutibacterium acnes
From the text: as §1

S. aureus N6 = experiment: agar cup assay MIC; details: Staphylococcus aureus; S. aureus N6 (Fus. resistant)
From the text: as §1

E. coli HA165 = experiment: agar cup assay MIC; details: Escherichia coli
From the text: as §1

S. aureus CJ247 = experiment: agar cup assay MIC; details: Staphylococcus aureus
From the text: as §1

S. aureus CJ234F = experiment: agar cup assay MIC; details: Staphylococcus aureus; S. aureus CJ234F (MRSA, Fus. resistant)
From the text: as §1

[4] = tested on: Streptococcus faecium EI19; experiment: agar cup assay MIC; details: Enterococcus faecium; Streptococcus faecium EI19 (Penicillin resistant); agar with 5% sheep blood
From the text: as §1

S. aureus CJ200 = experiment: agar cup assay MIC; details: Staphylococcus aureus
From the text: as §1

Candida albicans ZA = experiment: agar cup assay MIC
From the text: as §1

[5] = tested on: Streptococcus pyogenes EC88; experiment: agar cup assay MIC; details: agar with 5% sheep blood
From the text: as §1

[6] = tested on: Saccaromyces cervisiae ZZ7; experiment: agar cup assay MIC; details: Saccharomyces cerevisiae
From the text: as §1

Asbergillus niger ZM35 = experiment: agar cup assay MIC; details: Aspergillus niger
From the text: as §1

S. aureus = experiment: Minimum Bactericidal Concentration (MBC), broth culture and colony count; details: staphylococci, LB broth, aerobic; concentration twice that of MIC; FIG. 1
Procedure: (§2) 10^6 bacteria were inoculated in 3 ml growth media (S. aureus—LB broth, S. pyogenes—TH broth) containing approximately 2×MIC, 1×MIC, 0.5×MIC and O×MIC respectively of compound 102 (MIC being relative to the strain being tested). S. aureus strains were grown aerobically, and S. pyogenes anaerobically in a carbon dioxide enriched incubator. Samples were diluted and plated on LA-plates (S. aureus) or blood-agar plates (S. pyogenes) followed by 24 hours incubation at 37° C. before being scored for colonies.

S. pyogenes = experiment: as above; details: streptococci, TH broth, anaerobic; concentration twice that of MIC; FIG. 2
Procedure: as §2

Row | Compound | MIC (S. aureus CJ234R) [µg/mL] | MIC [1] [µg/mL] | MIC [2] [µg/mL] | MIC (S. epidermis CK5) [µg/mL] | MIC [3] [µg/mL] | MIC (S. aureus N6) [µg/mL] | MIC (E. coli HA165) [µg/mL] | MIC (S. aureus CJ247) [µg/mL] | MIC (S. aureus CJ234F) [µg/mL] | MIC [4] [µg/mL] | MIC (S. aureus CJ200) [µg/mL] | MIC (Candida albicans ZA) [µg/mL] | MIC [5] [µg/mL] | MIC [6] [µg/mL] | MIC (Asbergillus niger ZM35) [µg/mL] | bactericidal impact (MBC) (S. aureus) | bactericidal impact (MBC) (S. pyogenes)
1 | CC(=O)O[C@H]1C[C@@]2(C)C(CCC3[C@@]4(C)CC[C@@H](O)[C@@H](C)C4CC[C@@]32C)[C@@H]1[C@H](CCCC(C)C)C(=O)NCCN(CCN)CCN (stereo partly drawn) [Compound 102, 21-N-{2′-[bis(2′-aminoethyl)amino]ethyl}-11-desoxy-17R,20S,24,25-tetrahydrofusid-21-amide] | 4 (≈ 6.32 µM) | 4 (≈ 6.32 µM) | 16 (≈ 25.3 µM) | 4 (≈ 6.32 µM) | 4 (≈ 6.32 µM) | 4 (≈ 6.32 µM) | 16 (≈ 25.3 µM) | 4 (≈ 6.32 µM) | 4 (≈ 6.32 µM) | 16 (≈ 25.3 µM) | 4 (≈ 6.32 µM) | 4 (≈ 6.32 µM) | 16 (≈ 25.3 µM) | 16 (≈ 25.3 µM) | 4 (≈ 6.32 µM) | strong bacterial killing | strong bacterial killing
2 | CC(C)CCCC(C(=O)NCCN(CCN)CCN)C1=C2C[C@@H](O)C3[C@@]4(C)CC[C@@H](O)[C@@H](C)C4CC[C@]3(C)[C@@]2(C)CC1 (some centres unmarked) [Compound 104, 21-N-{2′-[bis(2′-aminoethyl)amino]ethyl}-13(17)-en-17,20,24,25-tetrahydrofusidan-21-carboxamide] | 16 (≈ 27.2 µM) | 16 (≈ 27.2 µM) | > 64 | 16 (≈ 27.2 µM) | 16 (≈ 27.2 µM) | 16 (≈ 27.2 µM) | > 64 | 16 (≈ 27.2 µM) | 16 (≈ 27.2 µM) | > 64 | 16 (≈ 27.2 µM) | 16 (≈ 27.2 µM) | 16 (≈ 27.2 µM) | 16 (≈ 27.2 µM) | > 64 | – | –
